Experimental data from patent US11466020B2, “Compounds and compositions for inhibition and elimination of Zika infection and uses for same” (Cornell University, priority 2017, dated 2022).
Structures can show the parent of a compound that is named as a salt.

Key:
[1] = target: histamine-N-methyltransferase (Homo sapiens, UniProt P50135); conditions: Horton et al. 2005; cited from earlier work
ZIKV MR766 virus strain = experiment: Prophylactic treatment of ZIKV infected SCID-Beige mice; format: in vivo; conditions: AQ-treated ZIKV infected mice
ZIKV (FSS13025 strain) = experiment: qRT-PCR of total and (-) strand vRNA in hNPCs treated 48 h post-infection (FSS13025); format: cell-based, Zika virus; conditions: treatment at 48 h post-infection, 25 μM, additional 3 days
Method: (A and B) Inhibitory curve and IC50 of AQ were calculated based on the infection rate (A) and normalized cell viability (B) (n=6). (C and D) Immunocytochemistry analysis (C) and quantification of infection rate and total cell number (D) of hNPCs after ZIKV infection treated with 15 μM AQ or DMSO or mock infection (n=3). Cells were fixed and stained for ZIKV E and with DAPI. Scale bars, 100 μm. p values were calculated by unpaired two-tailed Student's t-test. *p<0.05, and ***p<0.001. (E) qRT-PCR analysis of total and replicating (−) strand of ZIKV (MR 766 strain) vRNA level in hNPCs from two additional donors. hNPCs from different donors were treated with 25 μM HH at 24 h post-infection. (F) The expression dynamics of ZIKV vRNA (FSS13025 strain) in hNPCs. qRT-PCR analysis to quantify the total and replicating (−) strand ZIKV vRNA levels in hNPCs at different time points post-infection. […] (G) qRT-PCR analysis of hNPCs that were treated with 25 μM HH or DMSO at 48 h post-ZIKV (FSS13025 strain) infection and maintained for additional 3 days. p values were calculated by unpaired two-tailed Student's t-test. *p<0.05, **p<0.01 and ***p<0.001, unless otherwise stated. […]
RNA Extraction and qRT-PCR. […] ZIKV vRNA levels were calculated using a standard curve generated using serial 10-fold dilutions of ZIKV vRNA.

ZIKV (MR766 strain) = experiment: qRT-PCR of total and (-) strand vRNA in hNPCs treated 24-48 h post-infection (MR766); format: cell-based, Zika virus
Method: To further evaluate the therapeutic potential of HH, qRT-PCR analysis was performed to monitor the dynamics of ZIKV vRNA expression (MR766 strain) in hNPCs. Both total and replicating (−) strand of ZIKV vRNAs could be detected at 24 h post-infection, and the vRNA level kept increasing at 36 h and 48 h post-infection (FIG. 2J). […] In addition, to determine the effect of HH on hNPCs derived from different donors, 25 μM HH or DMSO control was added to the hNPCs derived from either of two additional donors at 24 h post-infection. […] Moreover, we evaluated the dynamics of ZIKV vRNA expression (FSS13025 strain) in hNPCs.
To monitor ZIKV dynamics in hNPCs, hNPCs were infected with ZIKV (MR766 strain, MOI=0.125, FSS13025 strain MOI=0.1) for 2 h, and changed to virus-free medium. The cells were maintained in NPC medium with daily medium change. The cells were lysed at the different time points and analyzed using qRT-PCR.
RNA Extraction and qRT-PCR. Total RNA of cultured cells and organs was extracted with RNeasy plus mini kit (Qiagen). vRNA from cell culture supernatant or mouse serum was extracted with QIAampe viral RNA mini kit (Qiagen). […] ZIKV vRNA levels were calculated using a standard curve generated using serial 10-fold dilutions of ZIKV vRNA.

[2] = tested on: human forebrain organoids; experiment: Forebrain organoid proliferation, apoptosis, size and structure after ZIKV infection; format: cell-based
From the text: Scale bars, 100 μm. […] Scale bars, 100 μm. […] Scale bars, 50 μm.
Medium was changed every other day.

Chain of histamine-N-methyltransferase (P50135 whole entry, species assumed): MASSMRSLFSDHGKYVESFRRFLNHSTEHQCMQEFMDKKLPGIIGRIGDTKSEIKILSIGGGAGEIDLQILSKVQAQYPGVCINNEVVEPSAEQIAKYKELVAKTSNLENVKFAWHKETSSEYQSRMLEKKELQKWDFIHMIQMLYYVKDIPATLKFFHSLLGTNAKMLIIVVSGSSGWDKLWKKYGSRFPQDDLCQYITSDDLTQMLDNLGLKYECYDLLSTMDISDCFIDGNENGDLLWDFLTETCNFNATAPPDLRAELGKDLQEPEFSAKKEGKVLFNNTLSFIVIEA

In the case of `CCN(CC)Cc1cc(Nc2ccnc3cc(Cl)ccc23)ccc1O` [AQ, amodiaquine dihydrochloride dihydrate], the “inhibition of histamine-N-methyltransferase” value [1] is listed as “potent inhibitor”, the “ZIKV infection of adult cortex (immunohistochemistry)” value (ZIKV MR766 virus strain) is listed as “suppresses infection in adult cortex” and the “ZIKV infection of adult hippocampus (immunohistochemistry)” value (ZIKV MR766 virus strain) is listed as “suppresses infection in adult hippocampus”. For the same compound, the “ZIKV infection of adult striatum (immunohistochemistry)” value (ZIKV MR766 virus strain) was “suppresses infection in adult striatum”.

For `CN1CCC2=C[C@H](O)[C@H]3OC(=O)c4cc5c(cc4[C@H]3[C@@H]21)OCO5` [HH, hippeastrine hydrobromide], the “total and replicating (-) strand ZIKV vRNAs in hNPCs (FSS13025)” value (ZIKV (FSS13025 strain)) was “completely suppressed”, the “total and replicating (-) ZIKV vRNA levels in hNPCs” value (ZIKV (MR766 strain); 25 μM added at 24 h, 36 h or 48 h post-infection, additional 3 days) was “successfully suppressed” and the “total and replicating (-) strand ZIKV vRNAs in hNPCs from two additional donors” value (ZIKV (MR766 strain); 25 μM added at 24 h post-infection) was “consistently suppressed”. For the same compound, the “ZIKV-associated proliferation (Ki67+) and apoptosis (CAS3+) defects in D20 organoids” value ([2]; 25 μM HH for 3 days) was “completely rescued”, the “ZIKV-induced structural defects in long-term organoid cultures” value ([2]; 25 μM HH, D20+18) was “successfully rescued” and the “cross-sectional area of ZIKV infected organoids at D20+18” value ([2]; 25 μM HH, mock 1.6, ZIKV 0.4) was 1.4 mm^2. The “neurotoxicity in forebrain organoids” value ([2]; HH compared with AQ) was “did not exhibit similar neurotoxicity as AQ”.
